Values of other authors as cited in patent publication US12728131B2, “Compositions for the treatment of glaucoma and ocular hypertension” (Nicox S.A., priority 2020, dated 2026).
Where two headings read alike, the source gives them in different places.

Conditions: phase 2 dose-ranging VOYAGER study

Compound: O=C(CCC/C=C\C[C@@H]1[C@@H](CC[C@@H](O)CCc2ccccc2)[C@H](O)C[C@@H]1O)OCCCCO[N+](=O)[O-] [latanoprostene bunod]
- reduction in mean diurnal IOP (0.024%): 9.0 mmHg

Compound: CC(C)OC(=O)CCC/C=C\C[C@@H]1[C@@H](CC[C@@H](O)CCc2ccccc2)[C@H](O)C[C@@H]1O [latanoprost, propan-2-yl (Z)-7-[(1R,2R,3R,5S)-3,5-dihydroxy-2-[(3R)-3-hydroxy-5-phenylpentyl]cyclopentyl]hept-5-enoate]
- reduction in mean diurnal IOP (0.005%): 7.77 mmHg
